Several values for one entry are separate records, joined by “and”; a condition that tells them apart may be missing. Identical values can stand only once. Entries after “also recorded” stand apart in the source; their conditions may differ. Like-named read-outs stand apart in the source and are kept apart here. Marks after values point to notes of the source that are not given here.
Key:
[1] = tested on: DPRA lysine peptide; set-up: method as in literature; settings: AAB pH 10.2, 24 h; ref literature; cited from earlier work
[2] = Kinetic Gly-pNA chemoassay (second-order rate constant k Gly); settings: reaction with Gly-pNA, nominal test compound concentration; for k Gly ± s(k Gly), second-order rate constant: phosphate buffer 80 mM, 25 °C, ≥ values are minimum reactivity; for log k Gly: phosphate buffer;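 as to all read-outs here: Gly-pNA depletion followed over time by chromatographic peak area, with test compound in at least tenfold excess (pseudo-first-order), added from acetonitrile stock, at least three runs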
Protocol: The reactivity of the 27 test compounds toward Gly-pNA was quantified in terms of the second-order reaction rate constant k Gly using our Gly-pNA chemoassay. , In brief, stock solutions of the test compound were freshly obtained every day by gravimetrically adding the required amount into a 10 mL volumetric flask, which was subsequently filled to volume with acetonitrile (ACN). The required amounts of test compounds depended on their reactivity toward Gly-pNA. […] As usual for kinetic studies, fast reacting chemicals are applied at lower concentrations than little reactive candidates. All stock solutions were stored at 25 °C in a climate chamber before first use (ca. 30 min) and for repeating an experiment (max. 6 h). Gly-pNA stock solution (1.69 mM) was obtained by dissolving 3.3 mg Gly-pNA in 10 mL phosphate buffer solution (80 mM) and could be used for several weeks if stored at 4 °C. For all chemoassay experiments, 1.8 mL glass vials were used as reaction batches, which were initially filled with 1070 μL phosphate buffer (80 mM) and 30 μL Gly-pNA stock solution. To start the reaction, 400 μL of the test compound stock solutions was added. […] The time between the start of the reaction and the first analysis was measured with an electronic time clock. All reactions were performed under pseudo-1st order conditions with the electrophile being at least ten times in excess over Gly-pNA.
For these compounds, the minimum reactivity was estimated in terms of k Gly by plotting ln (A Gly ^ t /A Gly ^0) vs reaction time t (with A Gly ^ t and A Gly ^0 being the peak areas under the chromatographic signal for Gly-pNA at time t and at the beginning of the reaction (t = 0)). Linear regression through 0 (at t = 0) and the first measurement point yields slope s (see Figure S1) which is the pseudo-1st order rate constant k Gly ^pseudo that can be converted with the initial test compound concentration in the reactions mixture (c) into k Gly according to eq . 1 kGly=kGlypseudo/c
2 Ln(AGlyt/AGly0)≈−kGly·c·t+0.5·kGly·kloss·c·t^2 Here k loss is the first order rate constant covering all processes contributing to the loss of the test compounds, except the reaction with Gly-pNA. The regression parameter of the linear part of eq (= k Gly·c) is the pseudo-1st order rate constant k Gly ^pseudo and can be converted into k Gly according to eq (see above).
Linear regression of these plots provides slope s, which is again the pseudo-1st order rate constant, k Gly ^pseudo, and can be used to calculate k Gly according to eq . All experiments to determine k Gly have been conducted at least three times.

[3] = DPRA-like chemoassay with Gly-pNA (24 h percent depletion); settings: PPB pH 7.4, 24 h, 25 °C, 50-fold excess of test compound
Protocol: (§1) In addition to the kinetic Gly-pNA chemoassay, the reactivity of the 27 compounds toward Gly-pNA and Lys-pNA was determined in terms of percentage depletions after reacting for 24 h at 25 °C employing the following DPRA-like setup: stock solutions for the test compounds were prepared by gravimetrically adding at least 3 mg of the respective compound into a glass vial (total volume 1.8 mL) and subsequent addition of 1 mL ACN. […] The stock solutions for Gly-pNA and Lys-pNA with a final concentration of 1.7 mM were prepared by dissolving the required amount in one of the three aqueous buffer solutions used for this DPRA-like chemoassay: phosphate buffer (80 mM, pH 7.4), phosphate buffer (80 mM, pH 10.2), and ammonium acetate buffer (100 mM, pH 10.2). Glass vials (1.8 mL) were used as reaction vessels.
(§2) In the final reaction mixtures, the concentration of Gly-pNA or Lys-pNA was 0.03 mM, and the test compound was 50 times in excess (1.5 mM). After incubation for 24 h at 25 °C, the free amount of either Gly-pNA or Lys-pNA was determined using the HPLC UV–vis method described for the kinetic Gly-pNA chemoassay. , The percentage depletion of Gly-pNA (D Gly) or Lys-pNA (D Lys) was determined directly from peak areas according to eq 3 Dx[%]=(Axcontrol−Ax/Axcontrol×100)withx=GlyorLys
(§3) In eq , A x and A x ^control are the peak areas of the chromatographic signal of either Gly-pNA (x = Gly) or Lys-pNA (x = Lys) at 315 nm after 24 h incubation with and without test compound, respectively.
(§4) Summary of experimental conditions of the DPRA-like setups used to determine
(§5) DGly, D Lys, and D DPRA data in Table 2 (main text).
(§6) Table S2. Overview of experimental conditions for the DPRA-like setups used to
(§7) determine 24 h percentage depletion rates for the reaction of the test compounds with
(§8) Gly-pNA, Lys-pNA, and the DPRA lysine peptide (literature data).

[4] = Stability assessment of test compounds in aqueous buffers (half-lives)
Protocol: To this end, the test compound was dissolved in 1 mL ACN in a glass vial. […] As reaction batches, 1.8 mL glass vials equipped with 400 μL glass inserts were used and filled with 220 μL of the respective aqueous buffer and 80 μL of the test compound stock solution. The depletion of the test compounds was recorded with the HPLC UV–vis instrument used for the kinetic Gly-pNA chemoassay. , Chromatographic separation of the reaction mixture was achieved using the gradient described for the Gly-pNA chemoassay previously , and an isocratic HPLC method (water/ACN 70:30, both with 0.1 vol % formic acid). The wavelengths used for the detection of the compound and the information on the used chromatographic method are given in the Supporting Information in Table S3.

[5] = DPRA-like chemoassay with Lys-pNA (24 h percent depletion); settings: 25 °C, 50-fold excess of test compound
Protocol: as §1, §2, §3, §4, §5, §6, §7, §8

[6] = ref Krutz et al., Sadekar et al., Ponder et al., Karol et al., Hopkins et al.; cited from earlier work
[7] = set-up: method as in our previous work; settings: PPB pH 7.4, 24 h; ref our previous work; cited from earlier work
[8] = set-up: method as in our previous work; settings: reaction with Gly-pNA; ref our previous work; cited from earlier work
[9] = buffer, pH 7.4, half-lives t 1/2 ± s(t 1/2), PPB (phosphate buffer 80 mM) pH 7.4
[10] = buffer, pH 10.2, half-lives t 1/2 ± s(t 1/2), AAP (ammonium acetate buffer 100 mM) pH 10.2
[11] = buffer, pH 10.2, half-lives t 1/2 ± s(t 1/2), PPB (phosphate buffer 80 mM) pH 10.2
[12] = AAB (ammonium acetate buffer) pH 10.2, 24 h
[13] = PPB (phosphate buffer 80 mM) pH 7.4
[14] = aqueous ammonium acetate buffer with acetonitrile, pH 10.2
[15] = aqueous phosphate buffer with acetonitrile, pH 7.4
[16] = aqueous phosphate buffer with acetonitrile, pH 10.2

| SMILES | D DPRA ± s(D DPRA), depletion of the DPRA lysine peptide [1] | k Gly ± s(k Gly), second-order rate constant [2] | D Gly ± s(D Gly), 24 h percent depletion of Gly-pNA [3] | half-life [4, 9] | half-life [4, 10] | half-life [4, 11] | D Lys ± s(D Lys), 24 h percent depletion of Lys-pNA [5, 12] | D Lys ± s(D Lys), 24 h percent depletion of Lys-pNA ([5]; PPB pH 10.2, 24 h) | Classification as potential respiratory sensitizer or non-sensitizer [6] | log k Gly [2] | half-lives t 1/2 ± s(t 1/2) [4, 13] | half-life [4, 14] | half-life [4, 15] | half-life [4, 16] | half-lives t 1/2 ± s(t 1/2) ([4]; AAP (ammonium acetate buffer 100 mM) pH 10.2) | half-lives t 1/2 ± s(t 1/2) ([4]; PPB (phosphate buffer 80 mM) pH 10.2) | D Gly, 24 h percent depletion of Gly-pNA [7] | k Gly ± s(k Gly), second-order rate constant [8] | log k Gly [8] |
| --- | --- | --- | --- | --- | --- | --- | --- | --- | --- | --- | --- | --- | --- | --- | --- | --- | --- | --- | --- |
| O=C=Nc1ccc(Cc2ccc(N=C=O)cc2)cc1 [A4, 4,4′-methylene diphenyl diisocyanate] | 23.0 ± 6.2% | ≥20015 ± 4486 L mol^–1 min^–1 | 100% | 5.9 ± 1 min | < 1 min | 4.6 ± 0.3 min | 22.9 ± 4.4% | 100% | potential respiratory sensitizer |  |  |  |  |  |  |  |  |  |  |
| O=C=Nc1ccccc1 [A5, phenyl isocyanate] | 48.4 ± 1.1% | ≥2368 ± 309 L mol^–1 min^–1 | 100% | < 1 min | < 1 min | < 1 min | 10.2 ± 0.7% | 100% | potential respiratory sensitizer | ≥3.37 |  |  |  |  |  |  |  |  |  |
| O=C1OC2(c3ccc(O)cc3Oc3cc(O)ccc32)c2ccc(N=C=S)cc21 [B3, fluorescein isothiocyanate] | 61.1% | 15.1 ± 2.6 L mol^–1 min^–1 | 100% |  | 8.21 ± 0.18 min | 3500 ± 236 min | 56.5 ± 0.3% | 100% | potential respiratory sensitizer |  | no depletion |  |  |  |  |  |  |  |  |
| O=C1OC(=O)c2ccccc21 [C1, phthalic anhydride] | 69.2 ± 22.0% | ≥22480 ± 1197 L mol^–1 min^–1 | 100% |  |  |  | 22.6 ± 7.4% | 100% | potential respiratory sensitizer |  |  | < 1 min | 89.5 ± 4.1 min | < 1 min |  |  |  |  |  |
| O=C(O)c1ccc2c(c1)C(=O)OC2=O [C2, trimellitic anhydride] | 59.9 ± 22.0% | ≥22271 ± 1975 L mol^–1 min^–1 | 100% |  |  |  | 15.2 ± 0.6% | 100% | potential respiratory sensitizer | 4.35 |  | < 1 min | 110 ± 10 min | 1 min |  |  |  |  |  |
| O=C1OC(=O)c2c(Cl)c(Cl)c(Cl)c(Cl)c21 [C3, tetrachlorophthalic anhydride] | 83.5 ± 0.7% | ≥9816 ± 858 L mol^–1 min^–1 | 100% | 24.3 ± 0.6 min | < 1 min | < 1 min | 11.5 ± 1.8% | 99.2 ± 0.7% | potential respiratory sensitizer | 3.99 |  |  |  |  |  |  |  |  |  |
| O=C1OC(=O)C2CCCCC12 (stereo not drawn) [D1, hexahydrophthalic anhydride] | 56.4 ± 29.4% | 2900 ± 110 L mol^–1 min^–1 | 100% |  |  |  | 12.5 ± 0.5% | 100% | potential respiratory sensitizer | 3.46 |  | < 1 min | 4.36 ± 0.36 min | 1.2 min |  |  |  |  |  |
| O=[N+]([O-])c1ccc(S(=O)(=O)O)c([N+](=O)[O-])c1 [E5, 2,4-dinitrobenzenesulfonic acid] | 27.4% | not reactive | 5.9% and 5.9 ± 0.3% |  |  |  | 0.9 ± 0.1% | 0% | non-sensitizer |  | no depletion |  |  |  | did not show any significant signal depletion; also recorded: no depletion | no depletion |  |  |  |
| C=CC(=O)OC [F2, methyl acrylate] | 86.5 ± 5.2% | 0.108 ± 0.005 L mol^–1 min^–1 | 16.6 ± 0.4% |  | 629 ± 48 min | 943 ± 63 min | 55.5 ± 0.7% | 67.9 ± 1.6% | non-sensitizer | –0.97 | no depletion |  |  |  |  |  |  |  |  |
| C=CC(=O)OCCCC [F3, butyl acrylate] | 87.8 ± 3.8% | 0.0826 ± 0.0141 L mol^–1 min^–1 | 15.2 ± 0.2% |  | 929 ± 59 min | 4250 ± 1800 min | 61.3 ± 0.4% | 74.4 ± 1.5% | non-sensitizer | –1.08 | no depletion |  |  |  |  |  |  |  |  |
| C=CC(=O)OCC [F4, ethyl acrylate] | 90.3 ± 6.6% | 0.0795 ± 0.0001 L mol^–1 min^–1 | 14.4 ± 0.6% |  |  |  | 55.8 ± 0.4% | 67.1 ± 1.4% | non-sensitizer |  | no depletion | 880 ± 119 min |  | 1350 ± 172 min |  |  |  |  |  |
| O=CCCCC=O [G1, glutaraldehyde] | 82.8 ± 7.6% |  |  |  |  |  | 7.2 ± 1.7% | 97.9 ± 0.6% |  |  |  |  |  |  |  |  | 100 ^c % | 17731 ± 2525 L mol^–1 min^–1 | 4.25 |

From paper PMC12175168, “Refining the Amino Reactivity-Based Identification of Respiratory Sensitizers” (Chemical Research in Toxicology, 2025)
